Source: patent US20160279108A1, “TARGETED MTOR INHIBITORS” (UNIVERSITY OF KANSAS, priority 2015, published 2016)

Assays:
[1] = cited from earlier work
[2] = Stak (US 20110201639 A1) for tacrolimus; cited from earlier work
4T1.2neu breast cancer = experiment: Animal survival and tumor suppression study; conditions: for median survival time: 10 mg/kg equivalent rapamycin once per week for 3 weeks, free rapamycin i.p., HA-L-Rapa s.c., control 17 days
[3] = Tissue distribution in tumor-bearing mice; assay type: in vivo, BALB/c mice; conditions: for concentration at 12 h: female, BALB/c, mouse, intraperitoneal, 10 mg/kg
Procedure: Drug tissue distribution was determined in female BALB/c mice (n=5). Tissue samples (50 mg) in 500 μL PBS were homogenized using a Tissue Tearor (BioSpec Products, Inc., Bartivesville, Okla.). The homogenized tissue was mixed with 250 μL ZnSO4 and 500 μL methanol. The mixture solution was centrifuged and the supernatant was analyzed by LC/MS.
In the tissue distribution study, BLAB/c mice were administered the drugs 12 h before being euthanized. Major organs (liver, kidneys, hear, spleen, lungs, brain, muscle), tumor and lymph nodes were excised and lightly washed with PBS. The organs were stored at −80° C. until analyzed by LC/MS.

[4] = Pharmacokinetics study in rats; assay type: in vivo, Sprague-Dawley rats
Procedure: Whole blood was withdrawn (100 μL) from the tail vein at 0 min, 5 min, 30 min, 1 h, 2 h, 4 h, 6 h, 12 h, 24 h and 48 h after dosing and placed in heparinized tubes (BD Vacutainer® Lithium Heparin 37 USP unit, BD Franklin Lakes, N.J.). The whole blood was centrifuged at 15,000×g for 10 min, and the plasma was frozen at −80° C. until analyzed. The animal use statement was approved by the University of Kansas Institutional Animal Care and Use Committee. Plasma samples and stander curves were prepared using a procedure reported previously.

[5] = mice, 2 mg/kg; cited from earlier work
[6] = i.v., rats, own previous studies; cited from earlier work
MDA-MB-468 cells [7] = conditions: MDA-MB-468 with H-CAM blocking of CD44, p=0.065
Procedure: Breast cancer MDA-MB-468 cells were maintained in Dulbecco's modified eagle medium supplemented with 10% fetal bovine serum (Hyclone Laboratory Inc., Logan, Utah). Cells were plated in white 96-well flat-bottomed plates at the concentration of 5,000 cells/well in 90 μL of growth medium. […] Hanks' solution and 10% trichloroacetic acid (TCA) were used as negative and positive control, respectively. The medium was refreshed 8 h after treatment. After 72 h post-treatment, resazurin blue (5 μM) was added and the resorufin product was measured with a fluorophotometer using an excitation wavelength of 550 nm and an emission wavelength of 590 nm.

MDA-MB-468 cells [8] = conditions: 10 μM
Procedure: Breast cancer cells, MDA-MB-468, were seeded in a 12-well plate at the concentration of 50,000 cells/well in 1 mL of growth medium. After 12 h incubation, 10 μL of human anti-CD44 antibody was added to each well.

[9] = in vivo; cited from earlier work
[10] = female, Sprague-Dawley, rat, plasma, ip, 10 mg/kg

CO[C@H]1C[C@@H]2CC[C@@H](C)[C@@](O)(O2)C(=O)C(=O)N2CCCC[C@H]2C(=O)O[C@H]([C@H](C)C[C@@H]2CC[C@@H](O)[C@H](OC)C2)CC(=O)[C@H](C)/C=C(\C)[C@@H](O)[C@@H](OC)C(=O)[C@H](C)C[C@H](C)/C=C/C=C/C=C/1C [rapamycin]
findings after i.v. administration [1]: injury (swelling and focal lesion) at the injection site, lymphoid atrophy and periarterial edema in the heart, liver | stability at alkaline pH conditions [2]: degrade rapamycin rapidly in hours or less | median survival time (4T1.2neu breast cancer): 15 days | concentration at 12 h ([3]; brain): 108 ± 37.4 ng/g | concentration at 12 h ([3]; heart): 441 ± 81.6 ng/g | concentration at 12 h ([3]; kidneys): 469 ± 27.3 ng/g | concentration at 12 h ([3]; liver): 379 ± 40.6 ng/g | concentration at 12 h ([3]; lungs): 618 ± 299 ng/g | concentration at 12 h ([3]; lymph nodes): 705 ± 116 ng/g | concentration at 12 h ([3]; muscle): 316 ± 154 ng/g | concentration at 12 h ([3]; spleen): 183 ± 66.5 ng/g | Mean concentration of rapamycin in Tumor ([3]; mice, 12 h post 10 mg/kg equivalent rapamycin, i.p. (free rapamycin), s.c. (HA-L-Rapa), Mean ± SD, n=5): 1240 ± 256 ng/g | AUC(0-inf) [4, 10]: 2.36 ± 0.46 µg·h/mL | Cmax [4, 10]: 0.173 ± 0.0691 µg/mL | half-life [4, 10]: 10.4 ± 3.76 h | Vd ([4]; rats, free rapamycin i.p., HA-L-Rapa s.c., 10 mg/kg equivalent rapamycin, Mean ± SD, n=3): 37.68 ± 15.49 L/kg | CI ([4]; rats, free rapamycin i.p., HA-L-Rapa s.c., Mean ± SD, n=3): 4.23 ± 0.95 L/h/kg | skin finding after subcutaneous administration [5]: skin ulceration | mortality [6]: 40%

C=CC[C@@H]1/C=C(\C)C[C@H](C)C[C@H](OC)[C@H]2O[C@@](O)(C(=O)C(=O)N3CCCC[C@H]3C(=O)O[C@H](/C(C)=C/[C@@H]3CC[C@@H](O)[C@H](OC)C3)[C@H](C)[C@@H](O)CC1=O)[C@H](C)C[C@@H]2OC [tacrolimus]
stability at alkaline pH conditions [2]: stable at alkaline pH conditions for over a week

HA-Rapamycin-42-(3′-amino-4′-methoxy)benzoate [HA-L-Rapa]
cell viability compared to the free drug (MDA-MB-468 cells [7]): no significant difference | tumor volume on day 20 compared with the control group (4T1.2neu breast cancer; 10 mg/kg equivalent rapamycin): significant decrease | median survival time (4T1.2neu breast cancer): 22 days | lung metastases observed at necropsy (animals of group) (4T1.2neu breast cancer; 4T1.2neu model, n=5): 1/5 | survival compared with control (4T1.2neu breast cancer; BALB/c mice with 4T1.2neu breast cancer): significantly longer survival | incidence of ulcerated tumor (4T1.2neu breast cancer; mammary carcinoma bearing mice): diminished the incidence of ulcerated tumor | tumor growth compared to the non-treatment group (4T1.2neu breast cancer; mammary carcinoma bearing mice): significantly inhibited tumor growth | rapamycin uptake compared to the free drug (MDA-MB-468 cells [8]; CD44 blocked with H-CAM, p=0.13): no difference | drug uptake compared to free rapamycin (MDA-MB-468 cells [8]; CD44 positive cells, p=0.012): 3.2 times

hyaluronic acid
turnover half-life [9]: 12 to 72 h
